Laboratory results as given in patent US10837005B2, “Recombinant microorganism capable of producing methyl anthranilate and method of producing methyl anthranilate using the same” (priority 2019, dated 2020).

Assays:
[1] = Partition coefficient between aqueous-phase culture medium and organic-phase tributyrin; type: physicochemical; conditions: aqueous phase: Carbon-free MR minimum medium, organic phase tributyrin
Description: In order to solve the problem of toxicity of MANT, a two-phase aqueous organic culture system was used in the present invention (FIG. 5 in part a). Tributyrin was used as an organic solvent to extract MANT from the culture medium. Tributyrin extraction capacity was determined by measuring the partition coefficient between the aqueous medium of MANT and tributyrin, the solvent, and the result is shown in Table 2. Tributyrin is also capable of extracting ANT, but the amount of ANT extracted is very small compared to the amount of MANT and thus is negligible. […] The culture was carried out under the same conditions as in Example 1-2, except that, when IPTG was added, 10 mL of tributyrin was added therewith. MANT productivity was calculated on an aqueous phase basis (that is, Titer=Caq·Vaq+Corg·Vorg)/Vaq)).

[2] = test system: Pseudomonas putida KT2440
E. coli = assay: MANT toxicity test on E. coli; type: cell-based
Description: […]. The low resistance of E. coli to MANT could adversely affect E. coli mutations that produce MANT at high concentrations. Thus, E. coli was cultured in a modified culture system.

Row | SMILES | Partition coefficient ([1]; pH 5.0) | Partition coefficient ([1]; pH 7.0) | Partition coefficient ([1]; pH 9.0) | MANT concentration at which growth was completely inhibited (C. glutamicum ATCC 13032; C. glutamicum) [g/L] | growth profile (C. glutamicum ATCC 13032; C. glutamicum ATCC 13032, various MANT concentrations) | MANT concentration at which strain was not capable of growing ([2]; P. putida KT2440) [g/L] | growth profile ([2]; P. putida KT2440, various MANT concentrations) | MANT concentration E. coli can withstand (E. coli) | final OD600 value (E. coli; E. coli exposed to various concentrations of MANT up to 1 g/L) | final OD600 value relative to base strain not exposed to MANT (E. coli; exposed to 0.5 g/L of MANT)
1 | Nc1ccccc1C(=O)O [Anthranilate, anthranilic acid] | 4.7 ± 0.2 | 0.1 ± 0.0 | Very low | – | – | – | – | – | – | –
2 | COC(=O)c1ccccc1N [MANT, Methyl anthranilate] | – | 420.1 ± 7.6 | – | 2.0 | concentration-dependent inhibition | 1.0 | concentration-dependent inhibition | up to 0.5 g/L | significantly reduced | about one third
